Data published in PubChem BioAssay AID328 (DTP/NCI, 2004).
Inconclusive results and toxic doses are left out. How the source made its calls: active means survival T/C of 150% or more; inactive means T/C below 125% in these data.

Tested on: BDF1 mice, P388 leukemia ip, median survival T/C
Assay: NCI In Vivo Anticancer Drug Screen. Data for tumor model P388 Leukemia (intraperitoneal) in B6D2F1 (BDF1) mice
Conditions: endpoint: median survival time, higher = longer survival
Procedure, shortened: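 In tumour-bearing mice, survival after compound treatment is set against the vehicle group and given as a quotient.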

[1] = dose: 12.5 mg/kg/injection, schedule: Q01DX009 (ip), vehicle: saline with Tween-80
[2] = dose: 100.0 mg/kg/injection, schedule: Q04DX003 (ip), vehicle: saline with Tween-80
[3] = dose: 200.0 mg/kg/injection, schedule: Q04DX003 (ip), vehicle: saline with Tween-80
[4] = dose: 400.0 mg/kg/injection, schedule: Q04DX003 (ip), vehicle: saline with Tween-80

Measured: T/C

CN(C)CNc1ncnc2onc(-c3ccccc3)c12
inactive: dose: 50.0 mg/kg/injection, schedule: Q01DX009 (ip), vehicle: other 100 % of control | dose: 100.0 mg/kg/injection, schedule: Q01DX009 (ip), vehicle: other 102 % of control

[N-]=[N+]=CC(=O)OCC(N)C(=O)O (stereo unspecified)
inactive: dose: 100.0 mg/kg/injection, schedule: Q01DX009 (ip), vehicle: saline 110 % of control | dose: 100.0 mg/kg/injection, schedule: Q04DX003 (ip), vehicle: saline 109 % of control | dose: 200.0 mg/kg/injection, schedule: Q01DX009 (ip), vehicle: saline 110 % of control | dose: 200.0 mg/kg/injection, schedule: Q04DX003 (ip), vehicle: saline 109 % of control | dose: 400.0 mg/kg/injection, schedule: Q04DX003 (ip), vehicle: saline 118 % of control

CCO/C=C1\SC(=S)N(c2ccccc2C)C1=O
inactive: dose: 8.8 mg/kg/injection, schedule: Q04DX003 (ip), vehicle: saline with Tween-80 100 % of control | dose: 13.2 mg/kg/injection, schedule: Q04DX003 (ip), vehicle: saline with Tween-80 104 % of control | dose: 20.0 mg/kg/injection, schedule: Q04DX003 (ip), vehicle: saline with Tween-80 100 % of control | dose: 25.0 mg/kg/injection, schedule: Q01DX009 (ip), vehicle: Klucel (hydroxypropylcellulose) (HPC) 101 % of control | dose: 30.0 mg/kg/injection, schedule: Q04DX003 (ip), vehicle: saline with Tween-80 104 % of control | dose: 88.0 mg/kg/injection, schedule: Q04DX003 (ip), vehicle: saline with Tween-80 122 % of control
active: dose: 300.0 mg/kg/injection, schedule: Q04DX003 (ip), vehicle: saline with Tween-80 163 % of control

Ic1ncnc2c1ncn2C1CCCO1 (stereo unspecified)
inactive: dose: 44.0 mg/kg/injection, schedule: Q01DX009 (ip), vehicle: saline sonified 100 % of control | dose: 66.0 mg/kg/injection, schedule: Q01DX009 (ip), vehicle: saline sonified 123 % of control | dose: 100.0 mg/kg/injection, schedule: Q01DX009 (ip), vehicle: saline sonified 114 % of control | dose: 100.0 mg/kg/injection, schedule: Q04DX003 (ip), vehicle: saline sonified 115 % of control | dose: 150.0 mg/kg/injection, schedule: Q01DX009 (ip), vehicle: saline sonified 114 % of control | dose: 200.0 mg/kg/injection, schedule: Q01DX009 (ip), vehicle: saline sonified 122 % of control | dose: 200.0 mg/kg/injection, schedule: Q04DX003 (ip), vehicle: saline sonified 120 % of control | dose: 400.0 mg/kg/injection, schedule: Q01DX009 (ip), vehicle: saline sonified 100 % of control | dose: 400.0 mg/kg/injection, schedule: Q04DX003 (ip), vehicle: saline sonified 105 % of control

CCCCCCCCCCCCCCCc1ccc(C(=O)C[n+]2ccccc2)cc1
inactive: dose: 3.13 mg/kg/injection, schedule: Q01DX009 (ip), vehicle: saline with Tween-80 100 % of control | dose: 6.25 mg/kg/injection, schedule: Q01DX009 (ip), vehicle: saline with Tween-80 104 % of control | [1] 118 % of control | dose: 16.5 mg/kg/injection, schedule: Q04DX003 (ip), vehicle: saline with Tween-80 122 % of control

CCC[CH2][Hg][Cl]
active: dose: 16.5 mg/kg/injection, schedule: Q01DX009 (ip), vehicle: saline with Tween-80 150 % of control
inactive: dose: 6.25 mg/kg/injection, schedule: Q04DX003 (ip), vehicle: saline sonified 115 % of control | dose: 11.0 mg/kg/injection, schedule: Q01DX009 (ip), vehicle: saline with Tween-80 100 % of control | [1] 109 % of control | dose: 12.5 mg/kg/injection, schedule: Q04DX003 (ip), vehicle: saline sonified 110 % of control | dose: 16.5 mg/kg/injection, schedule: Q04DX003 (ip), vehicle: saline sonified 113 % of control | dose: 25.0 mg/kg/injection, schedule: Q04DX003 (ip), vehicle: saline sonified 104 % of control | dose: 37.5 mg/kg/injection, schedule: Q04DX003 (ip), vehicle: saline sonified 118 % of control

O=C(OCCCl)c1ccc(Cl)cc1
inactive: dose: 50.0 mg/kg/injection, schedule: Q04DX003 (ip), vehicle: saline with Tween-80 108 % of control | [2] 100 % of control | [3] 94 % of control | [4] 94 % of control

CCP(CC)c1ccccc1
inactive: dose: 100.0 mg/kg/injection, schedule: Q01DX009 (sc), vehicle: olive oil, sesame oil, peanut oil 96 % of control | dose: 100.0 mg/kg/injection, schedule: Q04DX003 (sc), vehicle: olive oil, sesame oil, peanut oil 92 % of control | dose: 200.0 mg/kg/injection, schedule: Q01DX009 (sc), vehicle: olive oil, sesame oil, peanut oil 96 % of control | dose: 200.0 mg/kg/injection, schedule: Q04DX003 (sc), vehicle: olive oil, sesame oil, peanut oil 100 % of control | dose: 400.0 mg/kg/injection, schedule: Q01DX009 (sc), vehicle: olive oil, sesame oil, peanut oil 88 % of control | dose: 400.0 mg/kg/injection, schedule: Q04DX003 (sc), vehicle: olive oil, sesame oil, peanut oil 92 % of control

Nc1nnc2cc(F)ccc2n1
inactive: dose: 50.0 mg/kg/injection, schedule: Q01DX009 (ip), vehicle: Klucel (hydroxypropylcellulose) (HPC) 100 % of control | dose: 100.0 mg/kg/injection, schedule: Q01DX009 (ip), vehicle: Klucel (hydroxypropylcellulose) (HPC) 112 % of control | dose: 200.0 mg/kg/injection, schedule: Q01DX009 (ip), vehicle: Klucel (hydroxypropylcellulose) (HPC) 102 % of control

c1ccc(CCCSc2ccccc2)cc1
inactive: [2] 118 % of control | [3] 113 % of control | [4] 109 % of control
